Patent publication US9062059B2, “Pyrimidine PDE10 inhibitors” (Merck Sharp & Dohme Corp., priority 2011, dated 2015)

Each compound was assayed against human PDE10A2 (Homo sapiens (Human), UniProt Q9Y233) (assay: PDE10 fluorescence polarization (IMAP FP) inhibition assay). Details: read-out: PDE10A Ki.
Assay type: biochemical
Experimental: The activity of the compounds in accordance with the present invention as PDE10 inhibitors may be readily determined without undue experimentation using a fluorescence polarization (FP) methodology that is well known in the art (Huang, W., et al., J. Biomol Screen, 2002, 7: 215).
In a typical experiment the PDE10 inhibitory activity of the compounds of the present invention was determined in accordance with the following experimental method. PDE10A2 was amplified from human fetal brain cDNA (Clontech, Mountain View, Calif.) using a forward primer corresponding to nucleotides 56-77 of human PDE10A2 (Accession No. AF127480, Genbank Identifier 4894716), containing a Kozak consensus sequence, and a reverse primer corresponding to nucleotides 2406-2413 of human PDE10A2 (Accession No. AF127480, Genbank Identifier 4894716). Amplification with Easy-A polymerase (Stratagene, La Jolla, Calif.) was 95° C. for 2 minutes followed by thirty three cycles of 95° C. for 40 seconds, 55° C. for 30 seconds, and 72° C. for 2 minutes 48 seconds. Final extension was 72° C. for 7 minutes. The PCR product was TA cloned into pcDNA3.2-TOPO (Invitrogen, Carlsbad, Calif.) according to standard protocol. AD293 cells with 70-80% confluency were transiently transfected with human PDE10A2/pcDNA3.2-TOPO using Lipofectamine 2000 according to manufacturer specifications (Invitrogen, Carlsbad, Calif.). Cells were harvested 48 hours post-transfection and lysed by sonication (setting 3, 10×5 sec pulses) in a buffer containing 20 mM HEPES, 1 mM EDTA and protease inhibitor cocktail (Roche). Lysate was collected by centrifugation at 75,000×g for 20 minutes. Supernatant containing the cytoplasmic fraction was used for evaluation of PDE10A2 activity. The fluorescence polarization assay for cyclic nucleotide phosphodiesterases was performed using an IMAP® FP kit supplied by Molecular Devices, Sunnyvale, Calif. (product # R8139). IMAP® technology has been applied previously to phosphodiesterase assays (Huang, W., et al., J. Biomol Screen, 2002, 7: 215). Assays were performed at room temperature in 384-well microtiter plates with an incubation volume of 20.2 μL. Solutions of test compounds were prepared in DMSO and serially diluted with DMSO to yield 8 μL of each of 10 solutions differing by 3-fold in concentration, at 32 serial dilutions per plate. 100% inhibition is determined using a known PDE10 inhibitor, which can be any compound that is present at 5,000 times its Ki value in the assay described as follows, such as papaverine (see Siuciak, et al. Neuropharmacology (2006) 51:386-396; Becker, et al. Behav Brain Res (2008) 186(2):155-60; Threlfell, et al., J Pharmacol Exp Ther (2009) 328(3):785-795), 2-{4-[pyridin-4-yl-1-(2,2,2-trifluoroethyl)-1H-pyrazol-3-yl]phenoxymethyl}quinoline succinic acid or 2-[4-(1-methyl-4-pyridin-4-yl-1H-pyrazol-3-yl)-phenoxymethyl]quinoline succinic acid (see Schmidt, et al. J Pharmacol Exp Ther (2008) 325:681-690; Threlfell, et al., J Pharmacol Exp Ther (2009) 328(3): 785-795). 0% of inhibition is determined by using DMSO (1% final concentrations).
A Labcyte Echo 555 (Labcyte, Sunnyvale, Calif.) is used to dispense 200 nL from each well of the titration plate to the 384 well assay plate. A solution of enzyme (1/1600 dilution from aliquots; sufficient to produce 20% substrate conversion) and a separate solution of FAM-labeled cAMP PDE from Molecular Devices (product # R7506), at a final concentration of 50 nM are made in the assay buffer (10 mM Tris HCl, pH 7.2, 10 mM MgCl2, 0.05% NaN3 0.01% Tween-20, and 1 mM DTT). The enzyme and the substrate are then added to the assay plates in two consecutive additions of 10 μL, and then shaken to mix. The reaction is allowed to proceed at room temperature for 30 minutes. A binding solution is then made from the kit components, comprised of 80% Solution A, 20% Solution B and binding reagent at a volume of 1/600 the total binding solution.

Sequence of human PDE10A2 (Q9Y233 267-1055): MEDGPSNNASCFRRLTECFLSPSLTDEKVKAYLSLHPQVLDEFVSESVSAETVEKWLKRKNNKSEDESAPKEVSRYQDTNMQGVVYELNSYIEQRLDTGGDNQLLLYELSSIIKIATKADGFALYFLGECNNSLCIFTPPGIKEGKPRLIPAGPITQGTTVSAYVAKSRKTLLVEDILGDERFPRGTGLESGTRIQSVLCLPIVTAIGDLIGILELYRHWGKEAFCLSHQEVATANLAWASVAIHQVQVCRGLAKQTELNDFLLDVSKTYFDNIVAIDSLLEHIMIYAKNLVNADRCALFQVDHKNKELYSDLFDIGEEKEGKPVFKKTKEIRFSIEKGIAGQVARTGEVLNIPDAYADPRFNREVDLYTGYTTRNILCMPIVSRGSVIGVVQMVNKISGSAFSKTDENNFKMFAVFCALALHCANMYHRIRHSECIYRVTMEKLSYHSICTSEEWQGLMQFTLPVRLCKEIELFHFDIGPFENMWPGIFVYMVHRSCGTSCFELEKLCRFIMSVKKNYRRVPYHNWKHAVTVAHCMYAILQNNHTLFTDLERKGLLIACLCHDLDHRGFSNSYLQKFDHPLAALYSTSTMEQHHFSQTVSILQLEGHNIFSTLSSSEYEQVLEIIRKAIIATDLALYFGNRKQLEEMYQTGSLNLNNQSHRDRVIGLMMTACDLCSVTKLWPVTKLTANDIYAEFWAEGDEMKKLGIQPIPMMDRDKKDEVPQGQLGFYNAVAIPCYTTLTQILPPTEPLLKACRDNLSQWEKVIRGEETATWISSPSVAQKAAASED

Row | Structure (SMILES) | Ki [nM]
1 | Cc1nc(NCc2nnc(C)s2)cc(OC[C@H]2C[C@@H]2c2ccc3ncccc3n2)n1 [Compound 2-27, S,S-2-methyl-N-[(5-methyl-1,3,4-thiadiazol-2-yl)methyl]-6-{[2-(1,5-naphthyridin-2-yl)cyclopropyl]methoxy} pyrimidin-4-amine] | 0.02
2 | Cc1nnc(CNc2cc(OC[C@H]3C[C@@H]3c3ccccn3)nc(CF)n2)s1 [Compound 3-8, S,S-2-(fluoromethyl)-N-[(5-methyl-1,3,4-thiadiazol-2-yl)methyl]-6-[(2-pyridin-2-ylcyclopropyl)methoxy] pyrimidin-4-amine] | 1.1
3 | Cc1nc(NCc2cnn(C)c2)cc(OCC2CC2c2ccccn2)n1 (stereo not shown) [Compound 1-2, 2-methyl-N-[(1-methyl-1H-pyrazol-4-yl)methyl]-6-[(2-pyridin-2-ylcyclopropyl)methoxy]pyrimidin-4-amine] | 0.03
4 | COc1ccc([C@H]2C[C@@H]2COc2nc(N)nc(NCc3nnc(C)s3)c2F)nc1 [Compound 3-13, 5-fluoro-6-{[(1S,2S)-2-(5-methoxypyridin-2-yl)cyclopropyl]methoxy}-N-4-[(5-methyl-1,3,4-thiadiazol-2-yl)methyl]pyrimidine-2,4-diamine] | 0.5
5 | Cc1nnc(CNc2nc(N)nc(OC[C@H]3C[C@@H]3c3ccc4c(n3)CCC4)c2F)s1 [Compound 3-25, S,S-6-(((1S,2S)-2-(6,7-dihydro-5H-cyclopenta[b]pyridin-2-yl)cyclopropyl)methoxy)-5-fluoro-N4-((5-methyl-1,3,4-thiadiazol-2-yl)methyl)pyrimidine-2,4-diamine] | 0.09
6 | Cc1nc(NCc2nnc(C3CC3)s2)cc(OC[C@H]2C[C@@H]2c2ccccn2)n1 [Compound 2-37, S,S-N-[(5-cyclopropyl-1,3,4-thiadiazol-2-yl)methyl]-2-methyl-6-[(2-pyridin-2-ylcyclopropyl)methoxy] pyrimidin-4-amine] | 3.8
7 | Cc1nnc(CNc2nc(N)nc(OC[C@H]3C[C@@H]3c3ccc(Cl)cn3)c2F)s1 [Compound 3-19, 6-{[(1S,2S)-2-(5-chloropyridin-2-yl)cyclopropyl]methoxy}-5-fluoro-N-4-[(5-methyl-1,3,4-thiadiazol-2-yl)methyl]pyrimidine-2,4-diamine] | 3.6
8 | Cc1nc(NCc2sc(C)nc2C)c(C)c(OC[C@H]2C[C@@H]2c2ccccn2)n1 [Compound 2-47, S,S-N-[(2,4-dimethyl-1,3-thiazol-5-yl)methyl]-2,5-dimethyl-6-[(2-pyridin-2-ylcyclopropyl)methoxy] pyrimidin-4-amine] | 41.7
9 | COc1cccnc1[C@H]1C[C@@H]1COc1cc(NCc2cnn(C)c2)nc(C)n1 (stereo in doubt) [Compound 2-14, 6-{[2-(3-methoxypyridin-2-yl)cyclopropyl]methoxy}-2-methyl-N-[(1-methyl-1H-pyrazol-4-yl)methyl]pyrimidin-4-amine] | 3.6
10 | Cc1nc(NCc2cnn(C)c2)cc(OC[C@H]2C[C@@H]2c2ccc(C(F)F)cn2)n1 (stereo in doubt) [Compound 2-17, 6-({2-[5-(difluoromethyl)pyridin-2-yl]cyclopropyl}methoxy)-2-methyl-N-[(1-methyl-1H-pyrazol-4-yl)methyl]pyrimidin-4-amine] | 3.5
11 | Cc1nc(C)c(CNc2cc(OC[C@H]3C[C@@H]3c3ccccn3)nc(C3CC3)n2)s1 [Compound 3-11, S,S-2-cyclopropyl-N-[(2,4-dimethyl-1,3-thiazol-5-yl)methyl]-6-[(2-pyridin-2-ylcyclopropyl)methoxy] pyrimidin-4-amine] | 1.6
12 | Cc1cc(CNc2cc(OC[C@H]3C[C@@H]3c3ccc4ccccc4n3)nc(C)n2)n(C)n1 [Compound 2-4, S,S-N-[(1,3-dimethyl-1H-pyrazol-5-yl)methyl]-2-methyl-6-[(2-quinolin-2-ylcyclopropyl)methoxy] pyrimidin-4-amine] | 0.6
13 | Cc1ccc([C@H]2C[C@@H]2COc2nc(C)nc(NCc3nnc(C)s3)c2Cl)nc1 [Compound 2-58, S,S-5-chloro-2-methyl-6-{[(1S,2S)-2-(5-methylpyridin-2-yl)cyclopropyl]methoxy}-N-[(5-methyl-1,3,4-thiadiazol-2-yl)methyl]pyrimidin-4-amine] | 3.9
14 | COc1ccc([C@H]2C[C@@H]2COc2cc(NCc3nnc(C)s3)nc(N)n2)nc1 [Compound 2-53, S,S-6-{[(1S,2S)-2-(5-methoxypyridin-2-yl)cyclopropyl]methoxy}-N-4-[(5-methyl-1,3,4-thiadiazol-2-yl)methyl]pyrimidine-2,4-diamine] | 0.05

Now from value to compound:

Row | Ki [nM] | Structure (SMILES)
15 | 0.08 | Cc1nc(NCc2nnc(C)s2)cc(OC[C@H]2C[C@@H]2c2ccc(C3CC3)cn2)n1 (stereo in doubt) [Compound 9-2, 6-{[2-(5-cyclopropylpyridin-2-yl)cyclopropyl]methoxy}-2-methyl-N-[(5-methyl-1,3,4-thiadiazol-2-yl)methyl]pyrimidin-4-amine]
16 | 1 | Cc1nc(NCc2nnc(C)s2)cc(OC[C@H]2C[C@@H]2c2ccc(-c3cccnc3)cn2)n1 (stereo in doubt) [Compound 8-8, 6-{[2-(3,3′-bipyridin-6-yl)cyclopropyl]methoxy}-2-methyl-N-[(5-methyl-1,3,4-thiadiazol-2-yl)methyl] pyrimidin-4-amine]
17 | 1.1 | Cc1nc(NCc2cc(C)on2)cc(OCC2CC2c2ccccn2)n1 (stereo not shown) [Compound 12-2, 2-methyl-N-((5-methylisoxazol-3-yl)methyl)-6-((2-(pyridin-2-yl)cyclopropyl)methoxy)-pyrimidin-4-amine]
18 | 1.6 | Cc1ccc([C@H]2C[C@@H]2COc2nc(N)nc(NCc3nnc(C)s3)c2C#N)nc1 [Compound 16-4, 2-amino-4-{[(1S,2S)-2-(5-methylpyridin-2-yl)cyclopropyl]methoxy}-6-{[(5-methyl-1,3,4-thiadiazol-2-yl)methyl]amino}pyrimidine-5-carbonitrile]
19 | 5.3 | Cc1nc(NCc2ccncc2C)cc(OCC2CC2c2ccccn2)n1 (stereo not shown) [Compound 14-3, 2-methyl-N-((3-methylpyridin-4-yl)methyl)-6-((2-(pyridin-2-yl)cyclopropyl)methoxy)pyrimidin-4-amine]
